test system: Human peripheral blood mononuclear cells (PBMC); assay: TNFalfa-Release; type: cell-based; details: inhibition of TNF-a secretion, PBMC pre-incubated 30 minutes, stimulated 18 hours with lipopolysaccharide
Procedure, shortened: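 Buffy-coat PBMC at 5×105 c/ml in RPMI1640 with 2% FCS were pre-incubated 30 min with compound, then stimulated 18 h with LPS 1 mg/ml. Supernatant TNF-a measured by enzyme immunoassay; pIC50 from inhibition curves relative to LPS-stimulated and unstimulated wells.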

| SMILES | IC50 [µM] |
| --- | --- |
| COc1ccc(C(=O)Cc2c(Cl)cncc2Cl)c(OCC(=O)NCc2cccc(F)c2)c1OC [Compound 238, 2-{6-[2-(3,5-Dichloro-pyridin-4-yl)-acetyl]-2,3-dimethoxy-phenoxy}-N-(3-fluoro-benzyl)-acetamide] | < 1 |
| COc1ccc(C(=O)Cc2c(Cl)cncc2Cl)c(OCC(=O)NCc2cccc(C)c2)c1OC [Compound 239, 2-{6-[2-(3,5-Dichloro-pyridin-4-yl)-acetyl]-2,3-dimethoxy-phenoxy}-N-(3-methyl-benzyl)-acetamide] | < 1 |
| COc1ccc(C(=O)Cc2c(Cl)cncc2Cl)c(OCC(=O)NCc2ccc(C)cc2)c1OC [Compound 240, 2-{6-[2-(3,5-Dichloro-pyridin-4-yl)-acetyl]-2,3-dimethoxy-phenoxy}-N-(4-methyl-benzyl)-acetamide] | < 1 |
| COc1ccc(C(=O)Cc2c(Cl)cncc2Cl)c(OCC(=O)NCCc2ccccc2)c1OC [Compound 241, 2-{6-[2-(3,5-Dichloro-pyridin-4-yl)-acetyl]-2,3-dimethoxy-phenoxy}-N-phenethyl-acetamide] | < 1 |
| COc1ccc(C(=O)Cc2c(Cl)cncc2Cl)c(OCC(=O)NCCCc2ccccc2)c1OC [Compound 243, 2-{6-[2-(3,5-Dichloro-pyridin-4-yl)-acetyl]-2,3-dimethoxy-phenoxy}-N-(3-phenyl-propyl)-acetamide] | < 1 |
| COc1ccc(C(=O)Cc2c(Cl)cncc2Cl)c(OCC(=O)NCc2ccccc2Cl)c1OC [Compound 244, N-(2-Chloro-benzyl)-2-{6-[2-(3,5-dichloro-pyridin-4-yl)-acetyl]-2,3-dimethoxy-phenoxy}-acetamide] | < 1 |
| COc1ccc(C(=O)Cc2c(Cl)cncc2Cl)c(OCC(=O)NCc2cccc(Cl)c2)c1OC [Compound 246, N-(3-Chloro-benzyl)-2-{6-(2-(3,5-dichloro-pyridin-4-yl)-acetyl)-2,3-dimethoxy-phenoxy}-acetamide] | < 1 |
| COc1ccc(C(=O)Cc2c(Cl)cncc2Cl)c(OCC(=O)NCc2ccc(Cl)cc2)c1OC [Compound 248, N-(4-Chloro-benzyl)-2-{6-[2-(3,5-dichloro-pyridin-4-yl)-acetyl]-2,3-dimethoxy-phenoxy}-acetamide] | < 1 |
| COc1ccc(C(=O)Cc2c(Cl)cncc2Cl)c(OCC(=O)NCCc2cccnc2)c1OC [Compound 249, 2-{6-[2-(3,5-Dichloro-pyridin-4-yl)-acetyl]-2,3-dimethoxy-phenoxy}-14-(2-pyridin-3-yl-ethyl)-acetamide] | < 1 |
| COc1ccc(C(=O)Cc2c(Cl)cncc2Cl)c(OCC(=O)NCCNC(C)=O)c1OC [Compound 251, N-(2-Acetylamino-ethyl)-2-{6-[2-(3,5-dichloro-pyridin-4-yl)-acetyl]-2,3-dimethoxy-phenoxy}-acetamide] | < 1 |
| COc1ccc(C(=O)Cc2c(Cl)cncc2Cl)c(OCC(=O)NC[C@H](O)c2ccccc2)c1OC [Compound 252, (R)-2-{6-[2-(3,5-Dichloro-pyridin-4-yl)-acetyl]-2,3-dimethoxy-phenoxy}-N-(2-hydroxy-2-phenyl-ethyl)-acetamide] | < 1 |
| COc1ccc(C(=O)Cc2c(Cl)cncc2Cl)c(OCC(=O)NC[C@@H](O)c2ccccc2)c1OC [Compound 253, (S)-2-{6-[2-(3,5-Dichloro-pyridin-4-yl)-acetyl]-2,3-dimethoxy-phenoxy}-N-(2-hydroxy-2-phenyl-ethyl)-acetamide] | < 1 |
| COc1ccc(C(=O)Cc2c(Cl)cncc2Cl)c(OCC(=O)NCc2cccs2)c1OC [Compound 254, 2-{6-[2-(3,5-Dichloro-pyridin-4-yl)-acetyl]-2,3-dimethoxy-phenoxy}-N-thiophen-2-ylmethyl-acetamide] | < 1 |
| COc1ccc(C(=O)Cc2c(Cl)cncc2Cl)c(OCC(=O)NCCCN2CCCC2=O)c1OC [Compound 255, 2-{6-[2-(3,5-Dichloro-pyridin-4-yl)-acetyl]-2,3-dimethoxy-phenoxy}-N-[3-(2-oxo-pyrrolidin-1-yl)-propyl]-acetamide] | < 1 |

Reference: patent publication US8497380B2, “Substituted acetophenones useful as PDE4 inhibitors” (Leo Pharma A/S, priority 2006, dated 2013)
